In patent publication US9617247B1, “Form of halosulfuron-methyl, a process for its preparation and use of the same” (priority 2015, dated 2017):

Tests used:
Format in all cases: physicochemical
[1] = Determining water solubility (pH 7 buffer, HPLC of supernatant); details: for Concentration measured by HPLC after treatment: pH 7 buffer
Method: A stock pH 7 buffer solution was prepared by adding aqueous sodium hydroxide solution (0.1 M, 145 mL) to aqueous potassium dihydrogen phosphate solution (0.1 M, 250 mL), and then adding sufficient distilled water to adjust the final volume to 500 mL. At least 1 time and up to about 5 times the amount of halosulfuron-methyl needed for saturation was added to a mixing vessel containing stock buffer solution at the test temperature (e.g., 20° C.). The mixture was magnetically stirred in the dark while being maintained at the test temperature. Samples were periodically removed for analysis. The samples were centrifuged using a high speed, temperature-controlled centrifuge at the test temperature for about 20 minutes at ≧12000 G to remove suspended particles. An aliquot of each supernatant was taken for analysis.
The concentration of halosulfuron-methyl in the supernatant was determined by a high pressure liquid chromatography (HPLC) with a reversed phase chromatography column and UV detection. […] Samples were successively withdrawn from the mixing vessel and analyzed until three successive samples show little or no variation in concentration. The test is preferably replicated to ensure accuracy.

[2] = Cleanout test (residual halosulfuron-methyl extracted from bottle with acetonitrile); details: lower rating = more effective cleanout
Method: The test was conducted by dispersing in water a sample to produce a concentration that is normally used when applying the herbicide: 25% halosulfuron-methyl. The sample was added to tap water (300 mL) in a 400 mL beaker and magnetically stirred for 2 minutes. The mixture was then stirred for 2 minutes, whereupon the resulting dispersion was dispensed in three 100 mL aliquots to 4-oz (118 mL) polyethylene bottles. The bottles were capped, inverted twice and allowed to stand overnight.
After standing overnight, each individual bottle was inverted twice and the liquid contents were then poured out. Tap water (10 mL) was added and the bottle was inverted until all sediment was re-suspended, whereupon the contents were poured out. Tap water (100 mL) was added and the bottle was inverted twice and then allowed to stand undisturbed for 10 minutes. The bottle was inverted twice more and the contents were poured out. Acetonitrile (10 mL) was added to the bottle to extract any remaining material. The acetonitrile solution was analyzed by reversed-phase liquid chromatography with UV detection. The cleanout rating (the concentration of halosulfuron-methyl herbicide in the acetonitrile solution) is reported in % in Table 6 below.

[3] = Viscosity (stated finding, no method given)
[4] = OD formulation, measured vs original concentration 40%
[5] = OD formulation, original concentration 40%
[6] = SG formulation, measured vs original concentration 25%
[7] = SG formulation, original concentration 25%
[8] = WG formulation, measured vs original concentration 25%
[9] = WG formulation, original concentration 25%

Row | SMILES | Solubility [1, 4] | Concentration measured by HPLC after treatment [1, 5] | Solubility [1, 6] | Concentration measured by HPLC after treatment [1, 7] | Solubility [1, 8] | Concentration measured by HPLC after treatment [1, 9] | Cleanout rating (concentration of halosulfuron-methyl in the acetonitrile solution) ([2]; OD formulation) | Cleanout rating (concentration of halosulfuron-methyl in the acetonitrile solution) ([2]; SG formulation) | Cleanout rating (concentration of halosulfuron-methyl in the acetonitrile solution) ([2]; WG formulation) | viscosity (in words) ([3]; listed as halosulfuron-methyl in amorphous state) | solubility (in words) ([1]; compared with amorphous halosulfuron-methyl) | viscosity (in words) ([3]; listed as crystalline modification I of halosulfuron-methyl)
1 | COC(=O)c1c(Cl)nn(C)c1S(=O)(=O)NC(=O)Nc1nc(OC)cc(OC)n1 [Amorphous halosulfuron-methyl, methyl 3-chloro-5-(4,6-dimethoxypyrimidin-2-ylcarbamoylsulfamoyl)-1-methylpyrazole-4-carboxylate, reference compound] | 35% | 14% | 60% | 15% | 48% | 12% | 26% | 10% | 13% | highly viscous | – | –
2 | COC(=O)c1c(Cl)nn(C)c1S(=O)(=O)NC(=O)Nc1nc(OC)cc(OC)n1 [Halosulfuron-methyl, crystalline modification I] [methyl 3-chloro-5-(4,6-dimethoxypyrimidin-2-ylcarbamoylsulfamoyl)-1-methylpyrazole-4-carboxylate] | 88% | 35% | 99.6% | 24.9% | 92% | 23% | 5% | 0.1% | 2% | – | significant increase | decrease
